From patent publication US20250339426A1, “GCN2 MODULATOR FOR TREATING CANCER” (HIBERCELL, INC., priority 2022, published 2025)

What was measured:
[1] = system: GCN2 pathway (p-GCN2, ATF4) in HT1080 cells; test: Western blot analysis of HT1080 cell lysates; type: cell-based, human; details: FIG. 5
Experimental: The HT1080 cells were harvested and counted and diluted to the desired density. 2 mL of cell suspension was added into each well of 6-well cell culture plate. The plates were transferred into 37° C., 5% CO2 incubator overnight. The cells were treated as described above. The media was aspirated, and cells were washed with ice cold phosphate buffered saline (PBS). Ice cold 1× radioimmunoprecipitation assay (RIPA) lysis buffer supplemented with protease and phosphatase inhibitors was added to the cell pellets, on ice. After 30 min on ice the cell lysates were centrifuged at 4° C., 12,000 rpm for 15 minutes and the supernatant collected. Protein concentration was determined using BCA kit. The cell lysates were mixed with 5× sodium dodecyl sulfate (SDS) loading buffer and denatured at 95° C. for 5 minutes. […] After the electrophoresis was completed, the separated protein was transferred to a nitrocellulose membrane using transblot system for 90 min, 300 mA, then the membrane was blocked with (tris-buffered saline) TBS buffer (5% bovine serum albumin (BSA)) for 1 hr at room temperature. The membrane was exposed to the primary antibodies overnight in cold room in TBS buffer (1% BSA). The membrane was then washed with TBS-Tween for 3×10 min at R/T, incubated with secondary antibodies in TBS buffer (1% BSA) for 1 hr at RT. The membrane was washed with TBS-Tween for 3×10 min at R/T and the imaging was acquired with Li—COR imaging system.

[2] = system: FaDu (human head and neck cancer cells); test: In vivo tumor growth inhibition, FaDu xenograft; design: species or system BALB/c nude mice
Experimental: FaDu (human head and neck cancer cells): Female 6-8 weeks old BALB/c nude mice were inoculated subcutaneously on the right flank with FaDu tumor cells (5×10^6) in 0.1 ml of EMEM medium without serum for tumor development. The treatments were started when the mean tumor size reached approximately 194 mm^3 at Day 21 post inoculation and continued until end of study by twice daily oral gavage dosing of HC-7366 at listed doses (vehicle, 0.3 mg/kg HC-7366, 1 mg/kg HC-7366, 3 mg/kg HC-7366, 10 mg/kg HC-7366, or 30 mg/kg HC-7366, FIG. 11-13).
[formula] • 2.2.2 Tumor Measurements: The measurement of tumor size was conducted three times weekly with a caliper and recorded. The tumor volume (mm^3) was estimated using the formula: TV=a×b^2/2, where “a” and “b” is long and short diameters of a tumor, respectively. Tumor volume was calculated using the formula [tumor volume (mm^3)=π/6×length×width^2).
Regression was calculated using the formula=100×ΔT/T initial, if ΔT<0. Animals with 0 mm^3 tumor volume (no measurable tumor) for three consecutive measurements were considered as complete responders and animals with 50% tumor regressions were partial responders.

[3] = system: ASNS, PSAT1, PUMA, HIF1α, HIF2a in DLD-1 tumors; test: Tumor IHC, DLD-1 tumors; type: in vivo, BALB/c nude mice
Experimental: Immunohistochemical analysis was carried out on tumors that were collected at the end of the study described in Example 6. Formalin-fixed paraffin-embedded samples were sectioned at 5 μm thickness and mounted on Superfrost Plus microscope slides (Fisher Scientific). All immunohistochemical (IHC) staining was performed on Bond Rx auto-stainer (Leica Biosystems) using the conventional TSA-amplified detection system. Primary antibodies used were as follows: a-ASNS (Cell Signaling Technology #92479), a-PUMA (Cell Signaling Technology #98672), a-PSAT1 (Proteintech #10501-1-AP), a-PHGDH (Proteintech #14719-1-AP), HIF-1a-Novus Biologicals NB 100-479, HIF-2a-Novus Biologicals NB100-122SS, and GLUT-1-EMB Biosciences 07-1401. TSA-conjugated Alexa488, Alexa 568 and Alexa647 fluorophores from Invitrogen (#B40953, #B40956, and #B40958) were used at 1:500 dilution. Slides were counterstained with DAPI and cover slipped using Mowiol anti-fade mounting media (Sigma #D2522).
Slides were imaged with Aperio Versa 200 (Leica Biosystems) whole-slide scanner using 10×/0.32NA objective, and the data were analyzed using custom-written macros in ImageJ/FIJI (NIH). Briefly, 150 μm of outer edges of the tumor sections and necrotic regions (determined by lack of 4′,6-diamidino-2-phenylindole (DAPI) signal or presence of condensed DNA) were eliminated from the analysis. Gaussian-blurred DAPI channel was used to measure the area of the tumor tissue. Scans of immune-staining were processed to remove background, then total intensity value above appropriate threshold levels was measured and normalized to tissue area. All graphing and statistics (one-way ANOVA and pair-wise comparisons) were performed using Prism GraphPad.

ATF4, ASNS in FaDu cells = test: Jess protein analysis, FaDu cells; type: cell-based, human; details: 0.01 and 0.1 μM, 72 hr, sgControl vs sgGCN2
Experimental: Cell lysates were obtained from FaDu sgControl or sgGCN2 cells treated with HC-7366 (0, 0.01, 0.1 and 1 μM) for 72 hr. Ice cold 1x radioimmunoprecipitation assay (RIPA) lysis buffer supplemented with protease and phosphatase inhibitors was added to the cell pellets, on ice. After 30 min on ice the cell lysates were centrifuged at 4° C., 12,000 rpm for 15 minutes and the supernatant was collected. Protein concentration was determined using BCA kit. The cell lysates were mixed with 5×SDS loading buffer and denatured at 95° C. for 5 minutes. 1 μg lysate was run on Jess capillary and results were analyzed by compass simple western software. The following primary antibodies were used: p-GCN2 T899 (Abcam #ab75836), GCN2 (Cell Signaling #3302), ATF4 (Cell Signaling #11815) and ASNS (Proteintech #14681). Anti-rabbit secondary antibody was from ProteinSimple #042-206.

[4] = end of study (day 20), bell-shaped manner
[5] = printed 'in FaDu tumors', FIGS. 29-39

For `CNC(=O)c1ncn2cc(-c3c(F)ccc(NS(=O)(=O)c4cc(Cl)cnc4OC)c3F)ncc12` [HC-7366, 6-(3-((5-chloro-2-methoxypyridine)-3-sulfonamido)-2,6-difluorophenyl)-N-methylimidazo[1,5-a]pyrazine-1-carboxamide], the “GCN2 pathway, HC-7366 by itself” value ([1]; 0 to 10 μM) was “activation of GCN2 pathway”, the “halofuginone induced p-GCN2 and ATF4” value ([1]; 100 nM Halofuginone) was “inhibited” and the tumor regression ([2]; 1 mg/kg twice daily oral) was 33%. For the same compound, the TGI ([2]; all doses) was “significant TGI”, the “ASNS by IHC” value [3, 4] was “potently induced” and the “PSAT1 by IHC” value [3, 4] was “potently induced”. For the same compound, the “PUMA by IHC” value [3, 4] was “potently induced”, the HIF1α protein levels [3, 5] was “significantly reduced” and the HIF2α protein levels [3, 5] was “significantly reduced”. For the same compound, the “levels of ATF4 and ASNS” value (ATF4, ASNS in FaDu cells) was “GCN2-dependent increase”.
